This note sets out measurements from ChEMBL document CHEMBL5126506, “Coumarin-benzimidazole hybrids: A review of developments in medicinal chemistry” (Eur J Med Chem, 2022).

Data set [1] can be described thus: Antioxidant activity assessed as DPPH radical scavenging activity incubated for 30 mins in dark condition by spectrophotometrical analysis. Format: functional.
The next data set relates to MCF7. Briefly: Anticancer activity against human MCF7 cells assessed as cell growth inhibition measured after 48 hrs by sulforhodamine B staining based analysis. Format: functional.
The subject of a further data set is NCI-H460. Kind of data set: Anticancer activity against human NCI-H460 cells assessed as cell growth inhibition measured after 48 hrs by sulforhodamine B staining based analysis. The format is functional.
Another data set relates to SF-268. Kind of data set: Anticancer activity against human SF-268 cells assessed as cell growth inhibition measured after 48 hrs by sulforhodamine B staining based analysis. The format is functional.
Data set [2] can be described thus: Cytotoxicity against human WI-38 cells assessed as cell growth inhibition measured after 48 hrs by sulforhodamine B staining based analysis. Format: toxicity. Background: The SRB assay estimates cell density from bound dye.
In another data set the test system is Hepatitis C virus. Kind of data set: Antiviral activity against HCV GT-1b infected in human Huh-5-2 cells carrying HCV subgenomic replicons assessed as inhibition of viral replication by quantitative RT-PCR assay. The format is functional, organism-based, Hepacivirus hominis. The settings on record: subtype 1b. On the technique in general: Replicon systems follow genome replication, usually without infectious particles.

The next data set deals with Salmonella typhi. Briefly: Antibacterial activity against Salmonella typhi ATCC 11778 assessed as bacterial growth inhibition at 50 ug/ml incubated for 24 hrs relative to control. Format: functional, Salmonella enterica subsp. enterica serovar Typhi. Further details: scale not given: the % may be the effect or the level left. The settings on record: dose 50 µg/ml.
For another data set, the system named is Shigella dysenteriae. Briefly: Antibacterial activity against Shigella dysenteriae ATCC 49345 assessed as bacterial growth inhibition at 50 ug/ml incubated for 24 hrs relative to control. The format is functional. Further details: scale not given: the % may be the effect or the level left. The conditions noted are these: dose 50 µg/ml.
The test system of data set [3] is Staphylococcus aureus. Kind of data set: Antibacterial activity against Staphylococcus aureus assessed as zone of inhibition at 1000 ug/ml measured after 24 hrs by cup plate method. Format: functional. The conditions noted are these: read-out: DIZ.
Another data set has as its system Bacillus subtilis. Briefly: Antibacterial activity against Bacillus subtilis assessed as zone of inhibition at 1000 ug/ml measured after 24 hrs by cup plate method. The format is functional. The settings on record: read-out: DIZ.
For data set [4], the system named is Pseudomonas aeruginosa. Briefly: Antibacterial activity against Pseudomonas aeruginosa assessed as zone of inhibition at 1000 ug/ml measured after 24 hrs by cup plate method. The format is functional. The conditions noted are these: read-out: DIZ.
For the next data set, the system named is Escherichia coli. Briefly: Antibacterial activity against Escherichia coli assessed as zone of inhibition at 1000 ug/ml measured after 24 hrs by cup plate method. The settings on record: read-out: DIZ. The format is functional.
A further data set concerns Aspergillus niger. Briefly: Antifungal activity against Aspergillus niger assessed as zone of inhibition at 1000 ug/ml measured after 24 hrs by cup plate method. Format: functional. The conditions noted are these: read-out: DIZ.
The subject of another data set is Aspergillus flavus. Briefly: Antifungal activity against Aspergillus flavus assessed as zone of inhibition at 1000 ug/ml measured after 24 hrs by cup plate method. Format: functional. The conditions noted are these: read-out: DIZ.
The next data set concerns Aspergillus terreus. Briefly: Antifungal activity against Aspergillus terreus assessed as zone of inhibition at 1000 ug/ml measured after 24 hrs by cup plate method. Format: functional. The conditions noted are these: read-out: DIZ.
For another data set, the system named is Rattus norvegicus. Kind of data set: Antiinflammatory activity in formalin induced fasted albino rat paw oedema model assessed as inhibition of paw oedema at 100 mg/kg, po measured after 4 hrs by plethysmograph analysis relative to control. The format is functional. Further details: scale not given: the % may be the effect or the level left.
A further data set deals with Carbonic anhydrase 1 (Homo sapiens, UniProt P00915). Kind of data set: Inhibition of human carbonic anhydrase-1 by stopped flow CO2 hydrase assay.
Chain of Carbonic anhydrase 1 (P00915 whole entry): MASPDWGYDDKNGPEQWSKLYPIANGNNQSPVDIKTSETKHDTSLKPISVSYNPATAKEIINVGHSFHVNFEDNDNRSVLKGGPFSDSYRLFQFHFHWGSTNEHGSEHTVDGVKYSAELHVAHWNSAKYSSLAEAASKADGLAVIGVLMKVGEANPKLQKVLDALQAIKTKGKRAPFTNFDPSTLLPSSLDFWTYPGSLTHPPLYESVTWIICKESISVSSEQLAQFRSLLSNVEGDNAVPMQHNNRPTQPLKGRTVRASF
The target in the next data set is Carbonic anhydrase 2 (Homo sapiens, UniProt P00918). Kind of data set: Inhibition of human carbonic anhydrase-2 by stopped flow CO2 hydrase assay.
For the next data set, the system named is HeLa. Kind of data set: Anticancer activity against human HeLa cells assessed as cell growth inhibition by SRB method. The format is functional.
For data set [5], the system named is Staphylococcus aureus. Briefly: Antibacterial activity against beta lactamase positive Staphylococcus aureus ATCC 25923 assessed as zone of inhibition at 0.5 mg/ml incubated for 18 hrs by Kirby-Bauer disk diffusion method. The format is functional. The conditions noted are these: read-out: DIZ.
The test system of the next data set is Sprivivirus cyprinus. Briefly: Antiviral activity against Carp sprivivirus infected Fathead minnow EPC cells assessed as assessed as suppression of virus-induced cytopathic effect incubated for 48 hrs by CCK-8 assay. The format is functional, organism-based. In general terms: Cytopathic effects are the visible damage that an infection or toxin causes in cultured cells.

Data set [6] has as its system Pseudomonas aeruginosa. Kind of data set: Antibacterial activity against Pseudomonas aeruginosa assessed as cell growth inhibition measured after 24 hrs by serial broth-dilution method. Format: functional.

pEC50, pIC50: −log10 of the molar value. In brackets after ≈: the same amount, converted by molar mass.

By pEC50 is commonly meant −log10 of the EC50, conventionally taken in molar units. In general, GI50 refers to the concentration at which growth is held to half of that of the control. Usually pIC50 stands for the negative decadic logarithm of the IC50, by convention in mol/L. As usually defined, the IC50 is the concentration that gives 50% inhibition. In general, MIC refers to the lowest concentration that inhibits growth of the organism.

Take `O=C(Cc1cc(=O)oc2c([N+](=O)[O-])cccc12)Nc1nc2ccccc2[nH]1`: the pEC50 in data set [1] was 7.10.
Take `O=c1oc2ccccc2c2cc(O)n3c4ccccc4nc3c12`: the GI50 in the data set on MCF7 was 44 µM; in the data set with NCI-H460 it was 29 µM; with SF-268, 20.6 µM. Also, in [2], the GI50 at 48 h is 28.2 µM.
Take `CC(=O)OC[C@H]1O[C@@H](n2c(SCc3cc4ccccc4oc3=O)nc3cc(Cl)c(Cl)cc32)[C@H](OC(C)=O)[C@@H](OC(C)=O)[C@@H]1OC(C)=O`: the pEC50 in the data set with Hepatitis C virus is 5.51.
On to `O=c1oc2ccc(Cl)cc2cc1CSc1nc2ccc([N+](=O)[O-])cc2[nH]1`, for which the Activity in the data set with Salmonella typhi and in the data set with Shigella dysenteriae was 100% each time.
Turning to `O=c1oc2ccc(Br)cc2cc1CSc1nc2ccccc2[nH]1`, the negative-log EC50 (pEC50) in the data set on Hepatitis C virus is 5.40. The Activity in the data set with Salmonella typhi and in the data set with Shigella dysenteriae was 100% throughout.
`O=C1CSC(c2cc3ccc(O)cc3oc2=O)N1Nc1nc2ccccc2[nH]1` (stereo unspecified): the zone of inhibition at 1000 µg/mL in the data set with Staphylococcus aureus [3], in the data set on Bacillus subtilis, in the data set on Pseudomonas aeruginosa [4], in the data set on Escherichia coli, with Aspergillus niger and in the data set on Aspergillus flavus was 13 mm throughout. In the data set on Aspergillus terreus, the zone of inhibition at 1000 µg/mL came out at 13 mm. Further, the Activity in the data set with Rattus norvegicus was 48%.
On to `O=c1cc(C[n+]2cn(Cc3ccc4ccccc4c3)c3ccccc32)c2ccc(O)cc2o1`, for which the pIC50 against Carbonic anhydrase 1 was 5.27; on Carbonic anhydrase 2 it was 5.22.
Turning to `O=c1oc2cc(O)ccc2cc1/C=N/Nc1nc2ccccc2[nH]1`, the zone of inhibition at 1000 µg/mL with Staphylococcus aureus [3], in the data set with Bacillus subtilis, in the data set on Pseudomonas aeruginosa [4], in the data set with Escherichia coli, in the data set with Aspergillus niger and in the data set on Aspergillus flavus was 13 mm throughout. Moreover, the zone of inhibition at 1000 µg/mL in the data set on Aspergillus terreus stood at 13 mm. Besides, the Activity in the data set with Rattus norvegicus is recorded as 39%.
For the compound `O=c1oc2ccc(Br)cc2cc1CSc1nc2cc(F)ccc2[nH]1`, the pEC50 in the data set on Hepatitis C virus is 5.47.
With `COc1cccc2cc(CSc3nc4cc(Cl)c(Cl)cc4[nH]3)c(=O)oc12`, the pEC50 in the data set with Hepatitis C virus is 5.44.
For the compound `Cc1c(C2SCC(=O)N2Nc2nc3ccccc3[nH]2)c(=O)oc2cc(O)ccc12` (stereo unspecified), the zone of inhibition at 1000 µg/mL with Staphylococcus aureus [3], in the data set with Bacillus subtilis, in the data set with Pseudomonas aeruginosa [4], with Escherichia coli, in the data set on Aspergillus niger and with Aspergillus flavus was 13 mm in each case. For the same compound, the zone of inhibition at 1000 µg/mL in the data set with Aspergillus terreus came out at 13 mm. For the same compound, the Activity in the data set on Rattus norvegicus was 20%.
As to `O=c1cc(Cc2nc3ccccc3[nH]2)c2cccc([N+](=O)[O-])c2o1`, the pEC50 in data set [1] was 6.77.
Regarding `COc1ccc2oc(=O)cc(-c3nc4ccccc4n3S(=O)(=O)c3ccc(C)cc3)c2c1`, in the data set with HeLa, the GI50 was determined as 35 µg/mL (≈ 78.4 µM).
As for `O=c1oc2ccccc2c(O)c1S(=O)(=O)Nc1nc2ccccc2[nH]1`, in the data set with Staphylococcus aureus [5], the zone of inhibition at 500 µg/mL turned out to be 13 mm.
For `CC(=O)n1c(-c2cc3ccccc3oc2=O)nc2ccccc21`, the figures for the GI50 in the data set with MCF7, with NCI-H460 and with SF-268 were 22.7 µM, 36.5 µM and 31.5 µM, respectively. Besides, the 50% growth inhibitory concentration (GI50) at 48 h in [2] is > 100 µM.
With `O=c1ccc2cc(OCCCCn3cnc4ccccc43)ccc2o1`, the IC50 in the data set on Sprivivirus cyprinus was 0.56 µg/mL (≈ 1.67 µM).
Take `O=C1O[C@H]([C@@H](O)CO)C(O)=C1O` [ASCORBIC ACID]: in data set [1], the pEC50 was 7.52.
Consider `Cc1cc(C(C)(C)C)c(O)c(C(C)(C)C)c1` [BUTYLATED HYDROXYTOLUENE], for which, in data set [1], the pEC50 is 4.63.
In the case of `CO[C@@H]1[C@@H](OC(N)=O)[C@@H](O)[C@H](Oc2ccc3c(O)c(NC(=O)c4ccc(O)c(CC=C(C)C)c4)c(=O)oc3c2C)OC1(C)C` [NOVOBIOCIN], in the data set on Staphylococcus aureus [5], the zone of inhibition at 500 µg/mL came out at 25 mm.
As for `CN[C@@H]1[C@H](O[C@H]2[C@H](O[C@H]3[C@H](O)[C@@H](O)[C@H](N=C(N)N)[C@@H](O)[C@@H]3N=C(N)N)O[C@@H](C)[C@]2(O)C=O)O[C@@H](CO)[C@H](O)[C@H]1O` [STREPTOMYCIN], the minimal inhibitory concentration (MIC) in the data set with Pseudomonas aeruginosa [6] was found to be 2200 µg/mL (≈ 3780 µM).
